According to PubChem BioAssay AID1963830 (Molecular Pharmacology Branch, DTP, NCI, 2024):

Test system: 922993-354-T-J3-PDC complex spheroid viability
Test: Anticancer human tumor 922993-354-T-J3-PDC patient-derived endometrial carcinoma cell line growth inhibition [POLQ]
Conditions: for IC50: curve of first compound; for viability, T/C: stronger effect = lower value; active = viability on the fitted dose curve at most 10% of control; inactive = the rest
Summary of the method: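 Three-cell-type spheroids modelling solid tumor plus stroma served as the readout system; POL inhibitors were tested individually and in combination, concentration ranges set by clinical Cmax where known.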

[1] = second compound 0.0316 µM, first compound 0.0316 µM
[2] = second compound 0.0316 µM, first compound 0.1 µM
[3] = second compound 0.0316 µM, first compound 0.316 µM
[4] = second compound 0.0316 µM, first compound 1 µM
[5] = second compound 0.0316 µM, first compound 3.16 µM
[6] = second compound 0.0316 µM, first compound 10 µM
[7] = second compound 0.1 µM, first compound 0.0316 µM
[8] = second compound 0.1 µM, first compound 0.1 µM
[9] = second compound 0.1 µM, first compound 0.316 µM
[10] = second compound 0.1 µM, first compound 1 µM
[11] = second compound 0.1 µM, first compound 3.16 µM
[12] = second compound 0.1 µM, first compound 10 µM
[13] = second compound 0.316 µM, first compound 0.0316 µM
[14] = second compound 0.316 µM, first compound 0.1 µM
[15] = second compound 0.316 µM, first compound 0.316 µM
[16] = second compound 0.316 µM, first compound 1 µM
[17] = second compound 0.316 µM, first compound 3.16 µM
[18] = second compound 0.316 µM, first compound 10 µM
[19] = second compound 1 µM, first compound 0.0316 µM
[20] = second compound 1 µM, first compound 0.1 µM
[21] = second compound 1 µM, first compound 0.316 µM
[22] = second compound 1 µM, first compound 1 µM
[23] = second compound 1 µM, first compound 3.16 µM
[24] = second compound 1 µM, first compound 10 µM
[25] = second compound 3.16 µM, first compound 0.0316 µM
[26] = second compound 3.16 µM, first compound 0.1 µM
[27] = second compound 3.16 µM, first compound 0.316 µM
[28] = second compound 3.16 µM, first compound 1 µM
[29] = second compound 3.16 µM, first compound 3.16 µM
[30] = second compound 3.16 µM, first compound 10 µM
[31] = second compound 10 µM, first compound 0.0316 µM
[32] = second compound 10 µM, first compound 0.1 µM
[33] = second compound 10 µM, first compound 0.316 µM
[34] = second compound 10 µM, first compound 1 µM
[35] = second compound 10 µM, first compound 3.16 µM
[36] = second compound 10 µM, first compound 10 µM
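Also: spheroids exposed to the agents for one week.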
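For viability, T/C in this document: 100% = DMSO vehicle control wells.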

CC(C)n1c(=O)n(C)c2cnc3cc(F)c(-c4ccc(OCCCN5CCCCC5)nc4)cc3c21 + Cc1cccc(N(C)C(=O)C2C(O)CCN2c2nc(C)cc(C(F)(F)F)c2C#N)c1
inactive: viability, T/C [1] 101% | viability, T/C [2] 99.8% | viability, T/C [3] 99.9% | viability, T/C [4] 106% | viability, T/C [5] 97.4% | viability, T/C [6] 66.9% | viability, T/C [7] 95.3% | viability, T/C [8] 108% | viability, T/C [9] 108% | viability, T/C [10] 97.9% | viability, T/C [11] 81.3% | viability, T/C [12] 74.4% | viability, T/C [13] 114% | viability, T/C [14] 109% | viability, T/C [15] 104% | viability, T/C [16] 102% | viability, T/C [17] 88.2% | viability, T/C [18] 77% | viability, T/C [19] 114% | viability, T/C [20] 112% | viability, T/C [21] 110% | viability, T/C [22] 99.7% | viability, T/C [23] 90.7% | viability, T/C [24] 68.9% | viability, T/C [25] 100% | viability, T/C [26] 109% | viability, T/C [27] 102% | viability, T/C [28] 90.8% | viability, T/C [29] 95.5% | viability, T/C [30] 80.3% | viability, T/C [31] 101% | viability, T/C [32] 104% | viability, T/C [33] 107% | viability, T/C [34] 92.4% | viability, T/C [35] 92.3% | viability, T/C [36] 70.5%
> 10 µM: IC50 (second compound 0.0316 µM) | IC50 (second compound 0.1 µM) | IC50 (second compound 0.316 µM) | IC50 (second compound 1 µM) | IC50 (second compound 3.16 µM) | IC50 (second compound 10 µM)

COc1ccc([C@@H](O)c2cc(-c3ncnc4cc(N5CCOCC5)ccc34)c(F)cc2Cl)nn1 + Cc1cccc(N(C)C(=O)C2C(O)CCN2c2nc(C)cc(C(F)(F)F)c2C#N)c1
> 10 µM: IC50 (second compound 0.0316 µM) | IC50 (second compound 0.1 µM) | IC50 (second compound 0.316 µM) | IC50 (second compound 1 µM) | IC50 (second compound 3.16 µM) | IC50 (second compound 10 µM)
inactive: viability, T/C [1] 94% | viability, T/C [2] 85.9% | viability, T/C [3] 97.3% | viability, T/C [4] 98.3% | viability, T/C [5] 85.4% | viability, T/C [6] 58.2% | viability, T/C [7] 97.2% | viability, T/C [8] 99.5% | viability, T/C [9] 104% | viability, T/C [10] 94.6% | viability, T/C [11] 81.1% | viability, T/C [12] 63.9% | viability, T/C [13] 99.9% | viability, T/C [14] 104% | viability, T/C [15] 98.5% | viability, T/C [16] 84.3% | viability, T/C [17] 82.9% | viability, T/C [18] 62.6% | viability, T/C [19] 101% | viability, T/C [20] 93.5% | viability, T/C [21] 103% | viability, T/C [22] 103% | viability, T/C [23] 79% | viability, T/C [24] 62.7% | viability, T/C [25] 103% | viability, T/C [26] 102% | viability, T/C [27] 102% | viability, T/C [28] 86.9% | viability, T/C [29] 80.2% | viability, T/C [30] 60.5% | viability, T/C [31] 93.6% | viability, T/C [32] 95% | viability, T/C [33] 91.4% | viability, T/C [34] 83.7% | viability, T/C [35] 78% | viability, T/C [36] 57.9%
